Measured values published in patent publication US11007274B2, “Compounds for medicinal applications” (Ausvir Therapeutics Pty LTD, priority 2015, dated 2021).
Read-outs that look alike come from different tables or passages of the source. Marks after values point to notes of the source that are not given here.

Key:
influenza virus = assay type: cell-based
[1] = system: Oseltamivir resistant strains; assay: microbe, parasite or virus in culture; assay type: cell-based, influenza virus

| Compound | EC50 (influenza virus) | EC50 (influenza virus; read-out: EC50) [nM] | IC50 ([1]; Influenza A virus, H3N2, read-out: IC50, inhibition of plaque number) [ng/mL] | IC50, inhibition of plaque number ([1]; pH 1) | IC50 ([1]; unidentified influenza virus, pH 1, read-out: IC50, inhibition of plaque number) [ng/mL] | IC50 ([1]; unidentified influenza virus, read-out: IC50, inhibition of plaque number) [ng/mL] | IC50 ([1]; Influenza A virus, H3N2; read-out: IC50, inhibition of plaque number) [nM] | IC50 ([1]; pH 1; read-out: IC50, inhibition of plaque number) [nM] | IC50 ([1]; read-out: IC50, inhibition of plaque number) [nM] | IC50 ([1]; unidentified influenza virus, pH 1; read-out: IC50, inhibition of plaque number) [nM] | IC50 ([1]; unidentified influenza virus; read-out: IC50, inhibition of plaque number) [nM] |
| --- | --- | --- | --- | --- | --- | --- | --- | --- | --- | --- | --- |
| CC(=O)N[C@H]1[C@H]([C@H](OC(=O)NCCCCCCCCCNC(=O)c2cc(C(=O)NCCCCCCCCCNC(=O)O[C@@H]([C@@H]3OC(C(=O)O)=C[C@H](NC(=N)N)[C@H]3NC(C)=O)[C@H](O)CO)c(C(=O)N[C@H](CC(=O)NCS(=O)(=O)O)C(=O)NCS(=O)(=O)O)cc2C(=O)N[C@H](CC(=O)NCS(=O)(=O)O)C(=O)NCS(=O)(=O)O)[C@H](O)CO)OC(C(=O)O)=C[C@@H]1NC(=N)N [MD185, PK2PYR(Zn)2[(D-Asp)(NHCH2SO3)2]2] | 0.18/0.097 ng/ml | 0.097 | 1 | 1-100^b ng/ml | 1 to 10 | 1 to 10 |  |  |  |  |  |
| CCOC(=O)C1=C[C@@H](OC(CC)CC)[C@H](NC(C)=O)[C@@H](N)C1 [Oseltamivir, reference compound] |  |  |  |  |  |  | ≥ 1000 | ≥ 10000 | ≥ 10000 | 100 | 1000 |
